6 compounds from patent publication EP2003118A1, “Cinnamic acid derivatives as modulators of EP2 receptors” (Bayer Schering Pharma Aktiengesellschaft, priority 2007, dated 2008) can be followed below.

Broadly, the IC50 is the point on the concentration scale where inhibition reaches its midpoint.

Assay [1] concerns the target T1, EP2-Subtyp des humanen PGE2-Rezeptors (Homo sapiens, UniProt P43116).
T1 construct: host or cells: cells in a culture plate
Nature of the assay: cAMP antagonism test (HTRF cAMP, in presence of PGE2). It is filed as cell-based. Conditions: cAMP Antagonismustest, PGE2 as agonist; read-out: Antagonismus [IC50. The text has this: Die Bindung von PGE2 an den EP2-Subtyp des humanen PGE2-Rezeptors induziert die Aktivierung membranständiger Adenylatzyklasen und führt zur Bildung von cAMP. In Gegenwart des Phosphodiesteraseinhibitors IBMX wird das durch diese Stimulation akkumulierte und mittels Zell-Lyse freigesetzte cAMP in einem kompetitiven Nachweisverfahren eingesetzt. In diesem Test konkurriert das cAMP im Lysat mit cAMP-XL665 um die Bindung eines Eu-Kryptat markierten Anti-cAMP Antikörpers.
Dabei entsteht in Abwesenheit von zellulärem cAMP ein maximales Signal, welches auf der Kopplung dieses Antikörpers an das cAMP-XL665 Molekül beruht. Dadurch entsteht nach Anregung bei 337 nm ein auf FRET (fluorescence resonance energy transfer) basierendes, lang anhaltendes Emissionssignal bei 665 nm (und bei […]). Beide Signale werden in einem geeigneten Messgerät zeitlich versetzt, d.h. nach Abklingen der Hintergrundsfluoreszenz gemessen. Jegliche Erhöhung des durch Prostglandin-E2-Gabe bedingten niedrigen FRET-Signals (gemessen als Well-Ratio-Veränderung = Emission665nm/Emission620nm * 10000) zeigt die Wirkung von Antagonisten.
Die in einer Testplatte und 30 % DMSO vorgelegten Substanzlösungen (0.75 µl) werden in 16 µl einer KRSB+IBMX-Stimulationslösung gelöst (1 X Krebs-Ringer Bicarbonate Buffer; Sigma-Aldrich # K-4002; inklusive 750 µM 3-Isobutyl-1-methylxanthine Sigma-Aldrich # 1-7018), anschließend werden 15 µl davon in eine medienfreie Zellkulturplatte überführt, die kurz zuvor mit KRSB gewaschen worden war.
Nach einer 30-minütigen Vorinkubation bei Raumtemperatur (RT) werden 5 µl einer 4xPGE2 Lösung (11 nM) zugegeben und in Gegenwart des Agonisten für weitere 60 min bei RT inkubiert (Volumen: ~ 20 µl), bevor die Reaktion anschlieβend durch Zugabe von 5 µl Lysispuffer gestoppt und für weitere 20 min bei RT inkubiert wird (Volumen: ~ 25 µl). Das Zell-Lysat wird anschließend in eine Messplatte überführt und entsprechend den Herstellerangaben (cyclic AMP kit Cisbio International # 62AMPPEC) gemessen.
A general note: In TR-FRET formats the signal depends on donor and acceptor labels being close together.

For another assay, the system named is Kumulus-Eizell Komplexe. Nature of the assay: cumulus expansion test in vitro. It is filed as cell-based, Mäusen. To be noted: competing with PGE2. The source says: In immaturen weiblichen Mäusen (Stamm : CD1 (ICR) von Charles River) wird in einem Alter von 14 - 18 Tagen die Follikulogenese durch eine einmalige Gabe (intraperitoneal) von 10 I.E. PMSG (Pregnant Mare Serum Gonadotropine; Sigma G-4877, Lot 68H0909) induziert. 47 - 50 Stunden nach der Injektion werden die Ovarien entnommen und die Kumulus-Eizell Komplexe entnommen. Der Kumulus Komplex ist in diesem Stadium noch nicht expandiert. Die Kumulus-Eizell Komplexe werden nun für 20 - 24 Stunden mit Prostaglandin E2 (PGE2) (0,3 µM), Vehikel Kontrolle (Ethanol) oder Testsubstanzen inkubiert. Medium: alpha- MEM Medium mit 0,1 mM IBMX, Pyruvate (0,23 mM) Glutamine (2 mM), Pen/Strep 100 IU/ml Pen. und 100 µg/ml Strep.) und HSA (8 mg/ml)). Danach wird die Kumulus Expansion durch die Einteilung in vier Stadien (nach Vanderhyden et al. Dev Biol. 1990 Aug; 140(2):307-317) festgestellt. Tabelle 1: Beispiel für die biologische Wirksamkeit der erfindungsgemäßen Verbindungen (gemessen mittels cAMP Antagonismustest): […]

The target in assay [2] is T1, EP2-Subtyp des humanen PGE2-Rezeptors. Put plainly: cellular cAMP agonism test. Type of assay: cell-based.

T1 sequence (P43116 whole entry): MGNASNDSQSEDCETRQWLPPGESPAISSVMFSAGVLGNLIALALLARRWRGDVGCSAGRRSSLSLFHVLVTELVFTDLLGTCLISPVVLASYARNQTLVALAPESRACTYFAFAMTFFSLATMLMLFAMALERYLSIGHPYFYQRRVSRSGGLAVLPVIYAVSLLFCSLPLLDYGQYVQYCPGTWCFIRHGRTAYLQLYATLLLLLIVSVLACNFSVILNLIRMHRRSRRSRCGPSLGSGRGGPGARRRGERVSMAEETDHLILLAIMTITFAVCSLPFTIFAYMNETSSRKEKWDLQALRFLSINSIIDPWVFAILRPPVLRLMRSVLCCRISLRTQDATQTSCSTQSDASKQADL

As to `Cc1[nH]c2c(F)ccc(C)c2c1CCNC(=O)C=Cc1ccncc1` (mixture of isomers) [Beispiel 2, (E/Z)-N-[2-(7-Fluor-2,4-dimethyl-1H-indol-3-yl)-ethyl]-3-pyridin-4-yl-acrylamid], in assay [1], the IC50 amounted to 1500 nM.
For `CC(C)Oc1ccc2c(=O)c3cc(C(=O)O)ccc3oc2c1` [AH 6809, reference compound], the “Unterdrückung der Kumulus Expansion” value with Kumulus-Eizell Komplexe (100 - 200 µM) is listed as “ca. 30%”.
Regarding `Cc1[nH]c2c(F)ccc(C)c2c1CCNC(=O)/C=C/c1ccc2c(c1)OCO2` [Beispiel 1, (E)-3-Benzo[1,3]dioxol-5-yl-N-[2-(7-fluor-2,4-dimethyl-1H-indol-3-yl)-ethyl]-acrylamid], the “Unterdrückung der Kumulus Expansion” value with Kumulus-Eizell Komplexe (at a 10-fold lower concentration than AH 6809 (100 - 200 µM)) turned out to be 61%.
For `Cc1[nH]c2c(F)ccc(C)c2c1CCNC(=O)/C=C/c1ccc(OCCN(C)C)cc1` [Beispiel 18, (E)-3-[4-(2-Dimethylamino-ethoxy)-phenyl]-N-[2-(7-fluor-2,4-dimethyl-1H-indol-3-yl)-ethyl]-acrylamid], in assay [1], the IC50 turned out to be 2200 nM.
As to `Cc1[nH]c2c(F)ccc(C)c2c1CCNC(=O)/C=C/c1cccc(S(N)(=O)=O)c1` [Beispiel 36, (E)-N-[2-(7-Fluor-2,4-dimethyl-1H-indol-3-yl)-ethyl]-3-(3-sulfamoyl-phenyl)-acrylamid], the “Wirkung im zellulären Agonismustest” value in assay [2] is recorded as “keine Inhibition”. Also, the IC50 in assay [1] came to 1000 nM.
With `Cc1[nH]c2c(F)ccc(C)c2c1CCNC(=O)/C=C/c1cncc2ccccc12` [Beispiel 47, (E)-N-[2-(7-Fluor-2,4-dimethyl-1H-indol-3-yl)-ethyl]-3-isochinolin-4-yl-acrylamid], the half-inhibitory concentration (IC50) in assay [1] amounted to 1500 nM.
